Patent US7291630B2, “Azaindoles as inhibitors of c-Jun N-terminal kinases” (Eisai Co., Ltd., priority 2002, dated 2007)

Target: JNK3 kinase (Homo sapiens, UniProt P53779)
Experiment: JNK3 SPA assay (phosphorylation of GST-c-Jun)
Type: biochemical
Details: 3.33 μM ATP, GST-c-Jun substrate, 30 minutes at room temperature
Method: JNK1, JNK2, JNK3—SPA Assay
A typical assay for testing the activity of compounds to inhibit JNK1, JNK2 and JNK3 enzymes is as follows: • 1. Compound is dissolved in DMSO to a convenient concentration and this is diluted in 10% DMSO to a five times concentrate of the desired starting concentration (frequently 1:100). • 2. 10 μl of 500 mM EDTA is added to alternative wells of the Opti-plate row, which will receive kinase reaction plus DMSO. This creates the negative control. • 3. For the JNK2 and JNK3 assay, compounds are prepared in six 2-fold dilutions with water and each concentration is tested in duplicate. For the JNK1 assay compounds are prepared in four 5-fold dilutions with water which are tested in triplicate. Controls are treated identically. • 4. 20 μl per well of each compound concentration is transferred to an Opti-plate, in duplicate. • 5. 30 μl (JNK2/3 SPA) or 50 μl (JNK1 SPA) of substrate solution (25 mM HEPES pH 7.5, 10 mM magnesium acetate with 3.33 μM ATP (JNK2/3) or 2 μM ATP (JNK1), approximately 7.5 kBq [γ-33P] ATP, GST-c-Jun, in water) is added to each well. • 6. 50 μl (JNK2/3 SPA) or 30 μl (JNK1 SPA) of kinase solution (JNK in 25 mM HEPES pH 7.5, 10 mM Mg Acetate) is added to each well.
• 7. […] Plates are sealed and incubated for 30 minutes at room temperature, centrifuged for 10 minutes at 2500 g and counted. • 10. […]

Chain of JNK3 kinase (P53779 whole entry): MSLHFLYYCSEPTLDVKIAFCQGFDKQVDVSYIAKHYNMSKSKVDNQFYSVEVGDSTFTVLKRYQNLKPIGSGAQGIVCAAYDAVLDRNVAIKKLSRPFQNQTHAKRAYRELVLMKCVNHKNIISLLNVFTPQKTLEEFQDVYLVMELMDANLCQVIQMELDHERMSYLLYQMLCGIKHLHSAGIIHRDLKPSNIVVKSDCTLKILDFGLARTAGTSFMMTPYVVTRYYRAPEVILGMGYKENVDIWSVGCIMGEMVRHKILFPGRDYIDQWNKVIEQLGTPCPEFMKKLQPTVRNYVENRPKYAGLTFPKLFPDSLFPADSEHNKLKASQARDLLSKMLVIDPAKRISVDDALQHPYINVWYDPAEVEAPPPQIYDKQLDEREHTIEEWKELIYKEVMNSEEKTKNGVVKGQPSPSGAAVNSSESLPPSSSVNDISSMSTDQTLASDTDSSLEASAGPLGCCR

IC50	Structure (SMILES)
1.2 µM	CN(C)c1ccc(-c2cnc3[nH]ccc3c2)cc1 [Compound 1]
< 0.5 µM	c1csc(-c2cnc3[nH]ccc3c2)c1 [Compound 2]
